Results reported in the supplement of paper PMC10307832.

How the values were obtained:
Assay in all cases: relative viability (nuclei count vs DMSO), 5 days (fraction); higher = more cells survive
Imatinib + Alpelisib = compound: Cc1ccc(NC(=O)c2ccc(CN3CCN(C)CC3)cc2)cc1Nc1nccc(-c2cccnc2)n1 [Imatinib] + Cc1nc(NC(=O)N2CCC[C@H]2C(N)=O)sc1-c1ccnc(C(C)(C)C(F)(F)F)c1 [Alpelisib] (partner 2 µM)
Method in brief: (§1)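 For relative viability, nuclei counts in treated wells were divided by those in vehicle wells. Lung cancer cell lines had been pin-tool dosed in 1536-well plates the day after seeding and cultured for 5 days, then fixed and stained in one step (final 0.05% Triton X-100, 1% formaldehyde, 1 ug/ml Hoechst) and imaged at 4×. Doses were one drug alone or a fixed anchor-drug dose plus five library-drug doses (not always all listed) in √10 steps, and values are duplicate-plate medians.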

Imatinib + Navitoclax = compound: Cc1ccc(NC(=O)c2ccc(CN3CCN(C)CC3)cc2)cc1Nc1nccc(-c2cccnc2)n1 [Imatinib] + CC1(C)CCC(c2ccc(Cl)cc2)=C(CN2CCN(c3ccc(C(=O)NS(=O)(=O)c4ccc(N[C@H](CCN5CCOCC5)CSc5ccccc5)c(S(=O)(=O)C(F)(F)F)c4)cc3)CC2)C1 [Navitoclax] (partner 0.5 µM)
Method in brief: as §1

Imatinib + Lapatinib = compound: Cc1ccc(NC(=O)c2ccc(CN3CCN(C)CC3)cc2)cc1Nc1nccc(-c2cccnc2)n1 [Imatinib] + CS(=O)(=O)CCNCc1ccc(-c2ccc3ncnc(Nc4ccc(OCc5cccc(F)c5)c(Cl)c4)c3c2)o1 [Lapatinib] (partner 2 µM)
Method in brief: as §1

Imatinib + Luminespib = compound: Cc1ccc(NC(=O)c2ccc(CN3CCN(C)CC3)cc2)cc1Nc1nccc(-c2cccnc2)n1 [Imatinib] + CCNC(=O)c1noc(-c2cc(C(C)C)c(O)cc2O)c1-c1ccc(CN2CCOCC2)cc1 [Luminespib] (partner 0.01 µM)
Method in brief: as §1

HCC-78 gave a relative viability (Imatinib + Alpelisib; first compound 0.02 µM) of 0.319, a relative viability (Imatinib + Alpelisib; first compound 0.06325 µM) of 0.381 and a relative viability (Imatinib + Alpelisib; first compound 0.2 µM) of 0.367. For the same cell line, the relative viability (Imatinib + Alpelisib; first compound 0.6325 µM) was 0.347, the relative viability (Imatinib + Alpelisib; first compound 2 µM) was 0.348 and the relative viability (Imatinib + Navitoclax; first compound 0.02 µM) was 0.725. For the same cell line, the relative viability (Imatinib + Navitoclax; first compound 0.06325 µM) was 0.62, the relative viability (Imatinib + Navitoclax; first compound 0.2 µM) was 0.823 and the relative viability (Imatinib + Navitoclax; first compound 0.6325 µM) was 0.7. For the same cell line, the relative viability (Imatinib + Navitoclax; first compound 2 µM) was 0.818, the relative viability (Imatinib + Lapatinib; first compound 0.02 µM) was 0.924 and the relative viability (Imatinib + Lapatinib; first compound 0.06325 µM) was 0.467. The relative viability (Imatinib + Lapatinib; first compound 0.2 µM) was 0.676 and the relative viability (Imatinib + Lapatinib; first compound 2 µM) was 1.04.
HCC-366 was tested, and the relative viability (Imatinib + Alpelisib; first compound 0.02 µM) was 0.543, the relative viability (Imatinib + Alpelisib; first compound 0.2 µM) was 0.431 and the relative viability (Imatinib + Alpelisib; first compound 0.6325 µM) was 0.362. The relative viability (Imatinib + Alpelisib; first compound 2 µM) was 0.35, the relative viability (Imatinib + Navitoclax; first compound 0.02 µM) was 1.02 and the relative viability (Imatinib + Navitoclax; first compound 0.2 µM) was 1.13. The relative viability (Imatinib + Navitoclax; first compound 0.6325 µM) was 1.09, the relative viability (Imatinib + Navitoclax; first compound 2 µM) was 1.07 and the relative viability (Imatinib + Lapatinib; first compound 0.02 µM) was 1.3. For the same cell line, the relative viability (Imatinib + Lapatinib; first compound 0.2 µM) was 1.33, the relative viability (Imatinib + Lapatinib; first compound 0.6325 µM) was 1.03 and the relative viability (Imatinib + Lapatinib; first compound 2 µM) was 1.04.
HCC-827 was tested, and the relative viability (Imatinib + Alpelisib; first compound 0.02 µM) was 0.987, the relative viability (Imatinib + Alpelisib; first compound 0.06325 µM) was 0.861 and the relative viability (Imatinib + Alpelisib; first compound 0.2 µM) was 1.05. For the same cell line, the relative viability (Imatinib + Alpelisib; first compound 2 µM) was 1.01, the relative viability (Imatinib + Luminespib; first compound 0.06325 µM) was 0.322 and the relative viability (Imatinib + Luminespib; first compound 0.2 µM) was 0.807. For the same cell line, the relative viability (Imatinib + Luminespib; first compound 0.6325 µM) was 0.545, the relative viability (Imatinib + Luminespib; first compound 2 µM) was 0.729 and the relative viability (Imatinib + Navitoclax; first compound 0.02 µM) was 1.05. The relative viability (Imatinib + Navitoclax; first compound 0.06325 µM) was 0.947, the relative viability (Imatinib + Navitoclax; first compound 0.2 µM) was 1.08 and the relative viability (Imatinib + Navitoclax; first compound 0.6325 µM) was 1.05. It also gave a relative viability (Imatinib + Navitoclax; first compound 2 µM) of 0.973, a relative viability (Imatinib + Lapatinib; first compound 0.02 µM) of 0.206 and a relative viability (Imatinib + Lapatinib; first compound 0.06325 µM) of 0.162. It also gave a relative viability (Imatinib + Lapatinib; first compound 0.2 µM) of 0.211, a relative viability (Imatinib + Lapatinib; first compound 0.6325 µM) of 0.179 and a relative viability (Imatinib + Lapatinib; first compound 2 µM) of 0.191.
For HOP-62, the relative viability (Imatinib + Alpelisib; first compound 0.02 µM) was 1.13, the relative viability (Imatinib + Alpelisib; first compound 0.2 µM) was 0.758 and the relative viability (Imatinib + Alpelisib; first compound 2 µM) was 0.934. It also gave a relative viability (Imatinib + Luminespib; first compound 0.02 µM) of 1.06, a relative viability (Imatinib + Luminespib; first compound 0.06325 µM) of 0.84 and a relative viability (Imatinib + Luminespib; first compound 0.2 µM) of 1.03. The relative viability (Imatinib + Luminespib; first compound 0.6325 µM) was 0.886, the relative viability (Imatinib + Navitoclax; first compound 0.02 µM) was 0.983 and the relative viability (Imatinib + Navitoclax; first compound 0.2 µM) was 1.36. For the same cell line, the relative viability (Imatinib + Navitoclax; first compound 0.6325 µM) was 1.04, the relative viability (Imatinib + Navitoclax; first compound 2 µM) was 0.517 and the relative viability (Imatinib + Lapatinib; first compound 0.02 µM) was 1.03. For the same cell line, the relative viability (Imatinib + Lapatinib; first compound 0.2 µM) was 0.999, the relative viability (Imatinib + Lapatinib; first compound 0.6325 µM) was 0.935 and the relative viability (Imatinib + Lapatinib; first compound 2 µM) was 0.991.
Work on IA-LM yielded a relative viability (Imatinib + Alpelisib; first compound 0.02 µM) of 0.838, a relative viability (Imatinib + Alpelisib; first compound 0.06325 µM) of 1.1 and a relative viability (Imatinib + Alpelisib; first compound 0.2 µM) of 0.928. For the same cell line, the relative viability (Imatinib + Alpelisib; first compound 0.6325 µM) was 0.967, the relative viability (Imatinib + Alpelisib; first compound 2 µM) was 0.702 and the relative viability (Imatinib + Navitoclax; first compound 0.02 µM) was 0.909. For the same cell line, the relative viability (Imatinib + Navitoclax; first compound 0.06325 µM) was 0.813, the relative viability (Imatinib + Navitoclax; first compound 0.2 µM) was 1.05 and the relative viability (Imatinib + Navitoclax; first compound 0.6325 µM) was 0.83. It also gave a relative viability (Imatinib + Navitoclax; first compound 2 µM) of 0.754, a relative viability (Imatinib + Lapatinib; first compound 0.02 µM) of 1.01 and a relative viability (Imatinib + Lapatinib; first compound 0.06325 µM) of 1.23. It also gave a relative viability (Imatinib + Lapatinib; first compound 0.2 µM) of 0.656, a relative viability (Imatinib + Lapatinib; first compound 0.6325 µM) of 1.31 and a relative viability (Imatinib + Lapatinib; first compound 2 µM) of 0.719.
LCLC-103H gave a relative viability (Imatinib + Alpelisib; first compound 0.02 µM) of 0.909, a relative viability (Imatinib + Alpelisib; first compound 0.2 µM) of 0.9 and a relative viability (Imatinib + Alpelisib; first compound 0.6325 µM) of 0.851. For the same cell line, the relative viability (Imatinib + Luminespib; first compound 0.02 µM) was 1.03, the relative viability (Imatinib + Luminespib; first compound 0.06325 µM) was 0.8 and the relative viability (Imatinib + Luminespib; first compound 0.2 µM) was 1.04. The relative viability (Imatinib + Luminespib; first compound 0.6325 µM) was 0.892 and the relative viability (Imatinib + Luminespib; first compound 2 µM) was 0.863.
In the case of NCI-H358, the relative viability (Imatinib + Alpelisib; first compound 0.02 µM) is reported as 0.799, the relative viability (Imatinib + Alpelisib; first compound 0.2 µM) is reported as 0.841 and the relative viability (Imatinib + Alpelisib; first compound 0.6325 µM) is reported as 0.759. It also gave a relative viability (Imatinib + Alpelisib; first compound 2 µM) of 0.868, a relative viability (Imatinib + Luminespib; first compound 0.02 µM) of 0.317 and a relative viability (Imatinib + Luminespib; first compound 0.06325 µM) of 0.608. It also gave a relative viability (Imatinib + Luminespib; first compound 0.2 µM) of 0.501, a relative viability (Imatinib + Luminespib; first compound 0.6325 µM) of 0.308 and a relative viability (Imatinib + Luminespib; first compound 2 µM) of 0.418. It also gave a relative viability (Imatinib + Lapatinib; first compound 0.02 µM) of 0.478, a relative viability (Imatinib + Lapatinib; first compound 0.2 µM) of 0.445 and a relative viability (Imatinib + Lapatinib; first compound 0.6325 µM) of 0.448. For the same cell line, the relative viability (Imatinib + Lapatinib; first compound 2 µM) was 0.392.
Cell Line NCI-H441 has a relative viability (Imatinib + Alpelisib; first compound 0.02 µM) of 0.633, a relative viability (Imatinib + Alpelisib; first compound 0.06325 µM) of 0.903 and a relative viability (Imatinib + Alpelisib; first compound 0.2 µM) of 0.87. It also gave a relative viability (Imatinib + Alpelisib; first compound 0.6325 µM) of 0.706, a relative viability (Imatinib + Alpelisib; first compound 2 µM) of 0.605 and a relative viability (Imatinib + Luminespib; first compound 0.02 µM) of 0.37. The relative viability (Imatinib + Luminespib; first compound 0.06325 µM) was 0.326, the relative viability (Imatinib + Luminespib; first compound 0.2 µM) was 0.448 and the relative viability (Imatinib + Luminespib; first compound 0.6325 µM) was 0.304. It also gave a relative viability (Imatinib + Luminespib; first compound 2 µM) of 0.309, a relative viability (Imatinib + Navitoclax; first compound 0.02 µM) of 0.647 and a relative viability (Imatinib + Navitoclax; first compound 0.06325 µM) of 0.675. It also gave a relative viability (Imatinib + Navitoclax; first compound 0.2 µM) of 0.606, a relative viability (Imatinib + Navitoclax; first compound 0.6325 µM) of 0.612 and a relative viability (Imatinib + Navitoclax; first compound 2 µM) of 0.572.
Cell Line NCI-H650 has a relative viability (Imatinib + Alpelisib; first compound 0.02 µM) of 1.19, a relative viability (Imatinib + Alpelisib; first compound 0.06325 µM) of 1.15 and a relative viability (Imatinib + Alpelisib; first compound 0.2 µM) of 1.08. It also gave a relative viability (Imatinib + Alpelisib; first compound 0.6325 µM) of 1.2, a relative viability (Imatinib + Alpelisib; first compound 2 µM) of 0.983 and a relative viability (Imatinib + Luminespib; first compound 0.02 µM) of 0.887. It also gave a relative viability (Imatinib + Luminespib; first compound 0.06325 µM) of 0.67, a relative viability (Imatinib + Luminespib; first compound 0.2 µM) of 0.641 and a relative viability (Imatinib + Luminespib; first compound 0.6325 µM) of 0.796. The relative viability (Imatinib + Luminespib; first compound 2 µM) was 0.769, the relative viability (Imatinib + Lapatinib; first compound 0.02 µM) was 1.02 and the relative viability (Imatinib + Lapatinib; first compound 0.06325 µM) was 1.16. The relative viability (Imatinib + Lapatinib; first compound 0.2 µM) was 1, the relative viability (Imatinib + Lapatinib; first compound 0.6325 µM) was 1.11 and the relative viability (Imatinib + Lapatinib; first compound 2 µM) was 0.85.
